Structures are written as SMILES.

Casein kinase I isoform alpha, sequence (P48729 whole entry, canonical isoform): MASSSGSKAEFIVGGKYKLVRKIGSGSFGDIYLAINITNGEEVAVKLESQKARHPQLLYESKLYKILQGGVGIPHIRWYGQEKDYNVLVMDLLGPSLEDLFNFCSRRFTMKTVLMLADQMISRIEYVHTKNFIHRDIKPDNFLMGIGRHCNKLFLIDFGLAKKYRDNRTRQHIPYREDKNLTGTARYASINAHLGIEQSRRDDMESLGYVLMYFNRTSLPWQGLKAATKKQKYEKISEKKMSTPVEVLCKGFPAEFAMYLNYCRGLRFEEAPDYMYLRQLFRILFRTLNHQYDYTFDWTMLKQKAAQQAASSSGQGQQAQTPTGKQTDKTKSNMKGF

The experiment concerns the target Casein kinase I isoform alpha (Homo sapiens, UniProt P48729). The experiment can be described thus: Inhibition of CK1 after 30 mins by liquid scintillation counter.
Take `CC(C)n1cnc2c(NCc3ccc(-c4ccccn4)cc3)nc(NC[C@@H](O)CO)nc21`: the IC50 was 180 nM. The figure for `CC(C)n1cnc2c(NCc3ccc(-c4ccccn4)cc3)nc(N3C[C@H](O)C[C@H]3CO)nc21` is 390 nM; for `CC(C)n1cnc2c(NCc3ccc(-c4ccccn4)cc3)nc(NCC[C@H](O)CO)nc21` it is 660 nM; for `CC(C)[C@H](N)C(=O)OC[C@H](O)CNc1nc(NCc2ccc(-c3ccccn3)cc2)c2ncn(C(C)C)c2n1` it is 150 nM.

As a reminder, the IC50 is the midpoint of a concentration-inhibition curve. A high value points to weaker potency in that assay.

The record behind these values is BindingDB's records for doi:10.1016/j.ejmech.2012.08.033 (2012).
